For the assay, the target named is DNA gyrase (Escherichia coli). Description: Gyrase inhibitory activity against Escherichia coli.

With `CN1CCN(c2c(F)cc3c(=O)c(C(=O)O)cn4c3c2OCC42CC2)CC1`, the IC50 (commonly the concentration at which inhibition is half-maximal) was found to be 2.67 µM.

Source of the values: BindingDB's records for doi:10.1021/jm00117a005 (Sterling-Winthrop Research Institute, 1988).
